This note sets out measurements from patent US20240109843A1, “BENZALDEHYDE COMPOUNDS WITH DIRECT POLYMER DESTABILIZING EFFECTS TO TREAT SICKLE CELL DISEASE” (VIRGINIA COMMONWEALTH UNIVERSITY, priority 2018, published 2024).

One data set relates to sickle red blood cells. Put plainly: Antisickling study with human sickle blood under 2.5% oxygen. In kind it is cell-based. The following applies: Homo sapiens, Erythrocyte, sickle RBCs, 2.5% oxygen, read-out: sickling inhibition; for inhibition at 1000 µM: 1 mM; for inhibition at 500 µM: 0.5 mM. How it is done:
(§1) Blood suspensions from subjects with homozygous SCD (resuspended in Hemox™ buffer to a final hematocrit 20%) were incubated under air in the absence or presence of the compounds (0.5 mM, 1 mM and 2 mM) at 37° C. for 1 h to ensure that binding had attained equilibrium. The suspensions were then incubated under hypoxic conditions (2.5% oxygen/97.5% nitrogen) at 37° C. for 1 h. Aliquot samples were fixed with 2% glutaraldehyde solution without exposure to air, and then subjected to microscopic morphological analysis of bright field images (at 40× magnification) of single layer cells on an Olympus BX40 microscope fitted with an Infinity Lite B camera (Olympus), and the coupled Image Capture software. The residual samples were washed in phosphate-buffer saline, and hemolyzed in hypotonic lysis buffer for subsequent Hb-modification and oxygen equilibrium analyses.
The studies described above were conducted using normal whole blood. Next, we investigated whether the improvement in Hb oxygen affinity and the compounds sustained activity also translated to similar effects in SS blood from SCD patients. […] At 1 mM, PP8 and PP9 inhibited nearly 100% of sickling, while PP2, PP6, PP14 inhibited sickling by more than 70%. […] It is clear that the modifications of the present compounds has led to significant improvement in antisickling activity.

The next data set deals with T1, sickle Hb (Homo sapiens, UniProt P69905).
T1 construct: Blood suspensions from subjects with homozygous SCD; from tissue; host or cells: blood suspensions (20% hematocrit) from donors with homozygous SCD; lysates of the treated red cells
T1 sequence (P69905 2-142 limits assumed): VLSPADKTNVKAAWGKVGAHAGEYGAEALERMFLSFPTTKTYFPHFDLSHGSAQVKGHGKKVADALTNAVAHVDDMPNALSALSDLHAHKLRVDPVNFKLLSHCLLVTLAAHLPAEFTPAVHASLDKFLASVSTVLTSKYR
The data set is described as follows: Oxygen equilibrium (P50 shift) of lysates from treated sickle blood. In kind it is cell-based. To be noted: 0.5, 1 and 2 mM, SS blood. How it is done:
as §1
For oxygen equilibrium studies, approximately 100 μL aliquot samples from the above clarified lysate were added to 4 mL of 0.1M potassium phosphate buffer, pH 7.0, in cuvettes and subjected to hemoximetry analysis using a Hemox™ Analyzer (TCS Scientific Corp.) to assess P50 shifts. Degree of P50 shift (ΔP50) was expressed as percentage fractions of control DMSO-treated samples.

Data set [1] deals with T2, Hb (Homo sapiens, UniProt P69905). The data set is described as follows: Oxygen equilibrium curve (OEC) studies with normal whole blood. In kind it is cell-based. On the set-up: Hemoglobin modification, studies using non-sickling AA blood; from tissue; host or cells: non-sickling (AA) human blood, red blood cells. To be noted: normal whole blood, 0.5, 1, 2 mM. How it is done: Oxygen equilibrium curve (OEC) studies to determine the effect of the compounds on Hb affinity for oxygen were conducted following standard procedure. Whole blood (30% hematocrit) was incubated in the absence or presence of compounds (0.5 mM, 1.0 mM and 2.0 mM) solubilized in DMSO. […] After equilibration, the sample was removed via syringe and aspirated into an ABL 700 series table top automated blood gas analyzer (Radiometer America, Inc., Westlake, OH) to determine total hemoglobin (tHb), hematocrit (Hct), pH, pCO2, partial pressure of oxygen (pO2), and the Hb-O2 saturation (sO2) values. The measured values of pO2 and sO2 at each oxygen saturation level were then subjected to nonlinear regression analysis using the software Scientist (Micromath, Salt Lake City UT) with the following equation: […]
Aromatic aldehydes are known to prevent hypoxia-induced Hb S polymerization by increasing the Hb affinity for oxygen. We therefore tested the PP compounds in a dose-dependent manner (0.5, 1, 2 mM) for their effect on Hb oxygen binding property. […] These findings confirmed that the potent in vitro activity previously seen in TD7 was at least conserved in the novel PP compounds.
Target sequence in this assay (P69905 2-142 limits assumed): as above
Target sequence in this assay (P68871 2-147 partner limits assumed): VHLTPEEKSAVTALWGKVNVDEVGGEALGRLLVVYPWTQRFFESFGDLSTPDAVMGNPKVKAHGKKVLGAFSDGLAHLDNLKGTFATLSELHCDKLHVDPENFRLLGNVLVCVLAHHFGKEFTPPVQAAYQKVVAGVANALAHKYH

Data set [2] has as its system RBCs from donors with homozygous SCD. The data set is described as follows: Oxygen-independent sickle inhibition in SS blood suspensions under anoxia (100% nitrogen). In kind it is cell-based, human. The following applies: anoxia. How it is done:
To establish oxygen-independent sickle inhibition, the incubation chamber was subsequently opened and exposed to room air for 15 minutes to ensure complete re-oxygenation and reversal of the sickled cells to normal round cells. Reversal was confirmed by microscopy. The incubation chamber was then closed, and the assay was repeated with incubation in 100% nitrogen gas for 1 hour (for screening), or up to 2.5 h (for time-course studies), with collection and fixation of blood aliquots at defined intervals. Aliquot samples were again subjected to microscopic morphological analysis of bright field images to identify the proportion of sickled and non-sickled cells, and sickle inhibition calculated.

For data set [3], the target named is T2, Hb. The data set is described as follows: Drug partitioning studies, fixed and unfixed Hb adducts in non-sickling AA blood. In kind it is cell-based. On the set-up: Hemoglobin modification, studies using non-sickling AA blood; from tissue; host or cells: non-sickling (AA) human blood, red blood cells. To be noted: 2 mM; for Fixed Adducts (%) / Unfixed Adduct (%): 6 biological replicates; for Partitioning Ratio (%): fixed relative to unfixed adducts. How it is done: RBC partitioning studies were conducted both for SS RBCs following sickling studies above, or as separate independent studies with non-sickle blood. Briefly, aliquots of blood samples, which had been incubated with test molecules, were lysed either in deionized water (un-fixed), or in water containing 50 mM sodium borohydride (fixed). Samples were subjected to cation exchange HPLC analyses, as described above. Modified […] (Hb adducts) was determined as a proportion of total Hb in each sample, and partitioning ratio was determined as the relative fraction of Hb modification of fixed samples compared to corresponding non-fixed samples. The partitioning ratio is the relative fraction of Hb that was modified intracellularly by molecules that permeated the RBC membrane, as compared to unfixed adducts which reflect Hb binding without RBC membrane permeation.
Target sequence in this assay (P69905 2-142 limits assumed): as the sequence (P69905 2-142 limits assumed) above
Target sequence in this assay (P68871 2-147 partner limits assumed): as the sequence (P68871 2-147 partner limits assumed) above

In data set [4] the target is T2, Hb. The data set is described as follows: Hb modification (drug-adduct formation) in SS blood suspensions by cation-exchange HPLC. The following applies: 2 mM, 4 biological replicates. On the set-up: Blood suspensions from subjects with homozygous SCD; from tissue; host or cells: blood suspensions (20% hematocrit) from donors with homozygous SCD; lysates of the treated red cells. In kind it is binding. How it is done:
All compounds (Comp 1-13) and comparator molecules (VZHE-039, PP-14, INN-310, and Voxelotor) were evaluated following established procedures. Blood samples from individual donors with homozygous SCD (obtained with informed consent) were diluted using Hemox buffer solution with the addition of glucose (10 mM) and BSA (0.2%) to adjust hematocrit of the blood suspensions to 20%, which standardizes the procedure to normalize the ratio of RBCs to drug, for assay consistency and reproducibility. Briefly, blood suspensions were incubated under room air in the presence of various concentrations of test compounds (0-2 mM) at 37° C. for 1 hour in 96-well round bottom plates. Subsequently, the suspensions were incubated with a hypoxic gas mixture (2.5% Oxygen gas/balance Nitrogen gas) at 37° C. for up to 2 hours prior to fixation with 2% glutaraldehyde solution without exposure to air. The fixated blood aliquots were evaluated by microscopic morphological analysis (image analysis on Image J software) to identify the proportion of sickled and non-sickled RBCs, and sickle inhibition calculated based on the % change from negative control (DMSO).
The residual samples were then washed in phosphate-buffered saline, and hemolyzed in hypotonic lysis buffer, with or without sodium borohydride (50 mM). Aliquots obtained from the lysates with or without sodium borohydride (to reduce Schiff base adducts) were also assessed for level of Hb modification (drug-adduct formation) by cation-exchange HPLC (Hitachi D-7000 Series, Hitachi Instruments, Inc., San Jose, CA) with a weak cation-exchange column (Poly CAT A: 50 mm×4.6 mm, Poly LC, Inc., Columbia, MD). Hemoglobin isotype peaks are eluted with a linear gradient of phase B from 0% to 80% at A410 nm (Mobile Phase A: 40 mM Bis-Tris, 2 mM KCN, pH 6.9; Phase B: 40 mM Bis-Tris, 2 mM KCN, 0.2 M sodium chloride, pH 6.55). Clarified lysate from normal human adult […] (Hb A), as well as commercial standards containing approximately equal amounts of Hb F, A, S and C (Helena Laboratories, Beaumont, TX), were utilized as reference isotypes. Reduced samples were used to assess “fixed adduct” formation (dependent on RBC membrane permeability), whereas non-reduced samples assessed drug-adduct formation independent of drug permeability.
Target sequence in this assay (P69905 2-142): as the sequence (P69905 2-142 limits assumed) above
Target sequence in this assay (P68871 with tags, fused parts or gaps E7V partner): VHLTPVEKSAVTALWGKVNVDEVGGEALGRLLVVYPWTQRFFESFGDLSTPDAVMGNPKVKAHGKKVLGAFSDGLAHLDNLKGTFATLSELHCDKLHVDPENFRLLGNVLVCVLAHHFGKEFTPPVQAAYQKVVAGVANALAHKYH

The target in the next data set is T3, intracellular Hb (Mus musculus, UniProt P01942).
T3 construct: from tissue; host or cells: blood (red cell lysates) of dosed C57BL/6 mice
T3 sequence (P01942 2-142 limits assumed): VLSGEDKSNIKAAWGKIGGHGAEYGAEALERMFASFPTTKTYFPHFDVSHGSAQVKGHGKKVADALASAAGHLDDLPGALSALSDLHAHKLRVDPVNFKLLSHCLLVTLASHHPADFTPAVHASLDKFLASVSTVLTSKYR
T3 sequence (P02088 2-147 partner limits assumed): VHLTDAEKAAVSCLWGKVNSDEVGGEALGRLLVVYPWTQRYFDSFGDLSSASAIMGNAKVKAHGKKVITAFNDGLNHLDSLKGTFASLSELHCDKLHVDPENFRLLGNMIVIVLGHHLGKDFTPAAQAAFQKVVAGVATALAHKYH
The data set is described as follows: In vivo modification of intracellular Hb in wild-type mice. To be noted: IP 150 mg/kg, 30% PEG300, 6 h. On the set-up: species or system C57BL/6 mice. How it is done: We tested in vivo pharmacologic (pharmacodynamics) effects of select PP compounds in C57BL/6 mice. The animals were treated with a single intraperitoneal (IP) (150 mg/kg body weight) dose of PP6, PP10, PP14, and TD7, which were formulated with 30% PEG300. Blood samples were obtained prior to treatment (0) and 1, 3 and 6 h post-treatment, via submandibular bleeding, and subjected to hemolysis using standard methods. Clarified lysates, free of cell debris and red blood cell ghosts were analyzed by cation-exchange HPLC to determine the levels of drug-modified hemoglobin (adducts); and to conduct oxygen equilibrium studies to determine degrees of shift in p50 values using methodologies described earlier for in vitro studies on human samples. In a subsequent follow-up experiment, a new excipient obtained from Catalent Pharma Solutions was also used to formulate PP14 and used for a single intraperitoneal (IP) and oral (150 mg/kg body weight) dose. Blood samples were obtained prior to treatment (0) and 1, 3 or 5 h post-treatment, via submandibular bleeding, and used to determine the levels of drug-modified hemoglobin (adducts); and to conduct oxygen equilibrium studies to determine degrees of shift in p50 values as described above.

SMILES strings stand for the structures.

Regarding `COC(=O)c1ccc(COc2ccc(OC)cc2C=O)nc1` [PP9], the inhibition at 1000 µM in the data set with sickle red blood cells was roughly 100%. For the same compound, the “increase of Hb affinity for oxygen in sickle blood (in words)” value (“increase of Hb affinity for oxygen” for short) at sickle Hb is on record as “only marginally increasing Hb affinity for oxygen”. At Hb [1], the “effect on Hb oxygen binding property (OEC)” value (“effect … (OEC)” for short) was “most significant activities”.

Consider `COC(=O)c1cccnc1COc1ccc(OC)cc1C=O` [PP2, Methyl 2-((2-formyl-4-methoxyphenoxy)methyl)nicotinate], for which, in the data set with sickle red blood cells, the inhibition at 500 µM was greater than 35% and the inhibition at 1000 µM was greater than 70%. Further, at sickle Hb, the “increase of Hb affinity for oxygen” value is “only marginally increasing Hb affinity for oxygen”. Besides, at Hb [1], the “effect … (OEC)” value was “most significant activities”.

Consider `O=Cc1c(F)cc(F)cc1OCc1ccccn1` [Comp 9, 2,4-difluoro-6-(pyridin-2-ylmethoxy)benzaldehyde], for which, in data set [2], the “polymer destabilizing effect / sickle inhibition in anoxia (in words)” value was “completely negates the polymer destabilization effects”. In addition, on Hb [3], the “Fixed Adducts (%)” value came to 72.7 ± 4.1%, the “Unfixed Adduct (%)” value turned out to be 69.4 ± 7.5% and the “Partitioning Ratio (%)” value is given as 105.2 ± 5.9%. Besides, the “Hb Modification (%)” value on Hb [4] amounted to 69.1 ± 11.8%.

Consider `COC(=O)c1cccnc1COc1cccc(O)c1C=O` [PP6, Methyl 2-((2-formyl-3-hydroxyphenoxy)methyl)nicotinate], for which, in the data set with sickle red blood cells, the inhibition at 500 µM is greater than 35% and the inhibition at 1000 µM was greater than 70%. For the same compound, the “increase of Hb affinity for oxygen” value on sickle Hb is listed as “only marginally increasing Hb affinity for oxygen”. For the same compound, at intracellular Hb, the “modified Hb” value stood at 16.9±1.4%. Besides, the “effect … (OEC)” value at Hb [1] was “most significant activities”.

On to `O=Cc1c(F)cc(F)cc1OCc1ncccc1F` [Comp 13, 2,4-difluoro-6-((3-fluoropyridin-2-yl)methoxy)benzaldehyde], for which the “polymer destabilizing effect / sickle inhibition in anoxia (in words)” value in data set [2] was “completely negates the polymer destabilization effects”. Moreover, at Hb [3], the “Fixed Adducts (%)” value is listed as 80.7 ± 4.8%, the “Unfixed Adduct (%)” value stood at 78.4 ± 6.1% and the “Partitioning Ratio (%)” value is 103.0 ± 2.9%. Further, on Hb [4], the “Hb Modification (%)” value turned out to be 79.1 ± 10.3%.

Take `COc1ccc(OCc2ccccn2)c(C=O)c1` [INN-310, reference compound]: the “polymer destabilizing effect / sickle inhibition in anoxia (in words)” value in data set [2] was “only weak potency in anoxia”. Besides, at Hb [3], the “Fixed Adducts (%)” value is 82.0 ± 3.1%, the “Unfixed Adduct (%)” value was 79.7 ± 4.3% and the “Partitioning Ratio (%)” value was found to be 103.0 ± 1.7%. Besides, the “Hb Modification (%)” value on Hb [4] is 65.7 ± 6.0%.

As to `COC(=O)c1cccc(COc2ccc(OC)cc2C=O)n1` [PP3, Methyl 6-((2-formyl-4-methoxyphenoxy)methyl)picolinate], on sickle Hb, the “increase of Hb affinity for oxygen” value is recorded as “only marginally increasing Hb affinity for oxygen”.

For the compound `COC(=O)c1ncccc1COc1ccc(OC)cc1C=O` [PP8, Methyl 3-((2-formyl-4-methoxyphenoxy)methyl)picolinate], in the data set on sickle red blood cells, the inhibition at 500 µM is greater than 35% and the inhibition at 1000 µM was roughly 100%. Also, the “increase of Hb affinity for oxygen” value on sickle Hb is recorded as “only marginally increasing Hb affinity for oxygen”.

Turning to `O=Cc1c(OCc2cccnc2)ccc(F)c1O` [Comp 12, 3-fluoro-2-hydroxy-6-(pyridin-3-ylmethoxy)benzaldehyde], the “polymer destabilizing effect / sickle inhibition in anoxia (in words)” value in data set [2] is “significantly reduced the potency of polymer inhibition”. Moreover, on Hb [3], the “Fixed Adducts (%)” value is 80.4 ± 9.1%, the “Unfixed Adduct (%)” value came out at 80.8 ± 5.9% and the “Partitioning Ratio (%)” value was 99.4 ± 4.2%. Also, the “Hb Modification (%)” value at Hb [4] was 99.8 ± 0.4%.
